Results: ChEMBL document CHEMBL5360524 (Bioorg Med Chem, 2022)

Assays:
Serratia marcescens [1] = experiment: Antibacterial activity against Serratia marcescens assessed as inhibition of bacterial growth measured after 168 hrs relative to control; assay type: functional
Serratia marcescens [2] = experiment: Antibacterial activity against Serratia marcescens assessed as inhibition of bacterial growth measured after 96 hrs relative to control; assay type: functional

## COc1cc(C=O)ccc1O [VANILLIN]
Serratia marcescens [1]
  inhibition (INH): 0.4%
Serratia marcescens [2]
  inhibition (INH): 0.3%
